# System: mouse AhR
# Test: Competitive binding by velocity sedimentation on sucrose density gradients
# Procedure: Mouse hepatoma cells, Hepa1c1c7 (Hepa), and BP^rCl cells were maintained in modified Eagle's medium (Sigma) supplemented with 10% heat-inactivated fetal bovine serum, sodium pyruvate, L-glutamine, sodium bicarbonate, and Gentamicin (MEM+), at 37° C. in a humid atmosphere with 5% CO2. BP^rCl cells are a derivative of Hepa1c1c7 cells that lack ARNT protein expression and function (Probst et al., Mol. Pharmacol. 44:511-518 (1993), which is hereby incorporated by reference in its entirety). Upon reaching 90% confluency, cells were harvested and homogenized in HEDG buffer (25 mM HEPES, 1.5 mM Na2EDTA, 1 mM dithiothreitol, 10% (v/v) glycerol, pH 7.6) containing protease inhibitors (Roche Applied Science complete mini cocktail tablet, Indianapolis, Ind.). Both Hepa and BP^rC1 cytosols were prepared by centrifugation of the homogenate at 100,000 g for 45 min.
# Competitive binding of EGCG was analyzed by velocity sedimentation on sucrose gradients in a vertical tube rotor (Tsui et al., Can. J. Physiol. Pharmacol 59:927-931 (1981); Jensen et al., Toxicol. Sci. 64:41-56 (2001), which are hereby incorporated by reference in their entirety). Hepa cytosol (100 μl of 2.5 mg/ml) or BP^rCl cytosol was incubated for two hours at room temperature with either 3 nM ^3H-TCDD, 0.5 nM ^3H-TCDD, or 5 nM ^3H-BNF, in the presence of DMSO, 150-fold excess TCDF, 1 μM 3M4NF, or EGCG. Cytosols were washed with charcoal-dextran (1 mg charcoal/mg protein) in HEDG, and applied to a 10-30% (w/v) sucrose gradient in Beckman Quick-Seal centrifuge tubes (Beckman, Palo Alto, Calif.). [Methyl-^14C]-BSA was used as an internal sedimentation marker. The gradients were centrifuged for 2 h at 372,000×g in a Beckman VTI-80 rotor. Fractions were collected from the top at a rate of 1 ml/min, 0.2 ml/fraction. For competitive binding assays, fractions were assayed for radioactivity with ScintiVerse (Fisher Scientific, Fair Lawn, N.J.). […] For AhR and hsp90 density analysis, protein contained within an aliquot (200 of each fraction was separated by SDS-PAGE (7.5% acrylamide resolving gel) and transferred to PVDF membranes. Membranes were probed with antibodies recognizing AhR (Biomol) or hsp90 (Stressgen, Victoria, BC Canada). A crude estimate of the sedimentation coefficient for the EGCG shifted AhR complex was calculated by the method of Martin and Ames (Martin et al., J. Biol. Chem. 236:1372-1379 (1961), which is hereby incorporated by reference in its entirety) relative to the ^14C-BSA (4.4S) standard.
smiles,measurement,setting,value
"O=C(O[C@@H]1Cc2c(O)cc(O)cc2O[C@@H]1c1cc(O)c(O)c(O)c1)c1cc(O)c(O)c(O)c1 [EGCG, epigallocatechin gallate]",displacement of TCDD from the AhR ligand-binding site,"ARNT deficient BPrC1 cytosol, lower concentrations of 3H-TCDD",incapable of displacing TCDD
same,inhibition of TCDD binding after pretreatment,BPrC1 cytosol pretreated 30 minutes with EGCG,failed to inhibit TCDD binding
same,competition with 3H-TCDD for specific binding to the AhR (9S peak),"Hepa cytosol, 3 nM 3H-TCDD, 2 h, room temperature",failed to attenuate the ^3H-TCDD 9S signal
same,competition with 3H-BNF for binding to the AhR,"Hepa cytosol, 5 nM 3H-BNF, 2 h, room temperature",failed to inhibit BNF binding
